Reference: patent US20190112316A1, “THIAZOLO[3,2-A] PYRIMIDINONE AND OTHER HETEROBICYCLIC PYRIMIDINONE COMPOUNDS FOR USE IN MEDICAL THERAPY” (priority 2015, published 2019)
Values after ≈ are worked out from the molar mass of the structure shown.

Legend:
[1] = target: T1, glucocerebrosidase (Gcase) (Homo sapiens, UniProt P04062); assay: Glucocerebrosidase (Gcase) activation assay, 4-methylumbelliferyl-beta-D-glucopyranoside substrate, with saposin C; type: biochemical; details: for activation at 0.1 µM: read-out: Percent Gcase Activation 0.1 μM Test Compound; for activation at 1 µM: read-out: Percent Gcase Activation 1 μM Test Compound
T1 construct: micellar solution containing 10 nM GCase and 100 nM saposin C (Enzo ALX-201-262-C050)
T1 sequence (P04062 40-536): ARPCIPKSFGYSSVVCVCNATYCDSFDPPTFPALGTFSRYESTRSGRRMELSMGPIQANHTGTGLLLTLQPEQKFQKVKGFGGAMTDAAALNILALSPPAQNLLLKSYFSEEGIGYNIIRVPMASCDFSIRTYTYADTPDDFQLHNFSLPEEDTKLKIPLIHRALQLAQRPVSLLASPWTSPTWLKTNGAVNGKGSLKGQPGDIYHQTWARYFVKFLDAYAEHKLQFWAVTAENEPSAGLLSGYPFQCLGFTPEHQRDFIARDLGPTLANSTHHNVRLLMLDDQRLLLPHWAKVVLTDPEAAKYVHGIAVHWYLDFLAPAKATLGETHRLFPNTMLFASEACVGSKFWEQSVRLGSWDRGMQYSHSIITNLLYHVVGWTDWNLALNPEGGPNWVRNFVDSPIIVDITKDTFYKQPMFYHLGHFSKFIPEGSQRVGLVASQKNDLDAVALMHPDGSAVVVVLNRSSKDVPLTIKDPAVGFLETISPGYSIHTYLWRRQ
Protocol: A 484 μL aliquot of a 1.0 mg/mL solution of phosphatidylserine (PS) (Sigma P7769) in chloroform was evaporated under a stream of nitrogen for 1 hour. The lipid film was dissolved over 4 minutes of vigorous vortexing in 40 mL of 176 mM K2HPO4/50 mM citric acid (pH 4.7) containing 7.5 μL of triton X-100, resulting in a mixed micellar preparation with a composition of 0.32 mM triton and 0.37 mol % PS. 4-Methylumbelliferyl-beta-D-glucopyranoside (ACROS-337025000) was dissolved in the micellar solution to a final concentration of 2 mM for use as the reaction substrate.
Test compounds were diluted to the desired concentrations with dimethylsulfoxide (DMSO) from 10 mM stocks, and 0.41 μL of the DMSO compound mixture was added to 100 μL of micellar solution containing 10 nM GCase and 100 nM saposin C (Enzo ALX-201-262-C050). Pre-incubation was allowed to occur for 30 minutes at room temperature, after which the reaction was initiated by combining 25 μL of substrate solution with 25 μL of compound/GCase/saposin mixture. The reaction proceeded for 15 minutes at room temperature and was stopped by adding 150 μL of 1M glycine, pH 12.5. The endpoint of the reaction was monitored by measuring fluorescence intensity (excitation: 365 nm; emission: 440 nm) on a SpectraMax i3 instrument (Molecular Devices). Test compounds were screened at 1.0 and 0.1 μM final concentration, and subsequent 8-point dose response curves were obtained using 3-fold dilutions from a maximum final concentration of 5 μM.

[2] = Compound solubility in water; type: physicochemical

Row | Structure (SMILES) | activation at 0.1 µM [1] | activation at 1 µM [1] | solubility [2]
1 | CCCCCO[C@H]1CC[C@H](NC(=O)c2cnc3n(c2=O)CCS3)CC1 | < 5% | 5 to 20% | 8.4 µg/mL (≈ 23 µM)
2 | CCC(C)c1ccc(NC(=O)c2cnc3cccc(C)n3c2=O)cc1 (stereo not drawn) | 5 to 20% | > 20% | 1 µg/mL (≈ 2.98 µM)
3 | CCC(C)c1ccc(NC(=O)c2cnc3ccc(C)cn3c2=O)cc1 (stereo not drawn) | < 5% | 5 to 20% | 0.05 µg/mL (≈ 0.149 µM)
4 | Cc1cccc2ncc(C(=O)NC3CCC(C)CC3)c(=O)n12 (stereo not drawn) | < 5% | > 20% | 18.7 µg/mL (≈ 62.5 µM)
5 | Cc1cccc2ncc(C(=O)NC3CCCCCC3)c(=O)n12 | < 5% | > 20% | 9.3 µg/mL (≈ 31.1 µM)
6 | Cc1cccc2ncc(C(=O)Nc3ccc(-n4ccnc4)cc3)c(=O)n12 | < 5% | 5 to 20% | 1.2 µg/mL (≈ 3.47 µM)
7 | Cc1cccc2ncc(C(=O)NC3CCOCC3)c(=O)n12 | < 5% | 5 to 20% | 31 µg/mL (≈ 108 µM)
8 | CCN1CCN(c2ccc(NC(=O)c3cnc4cccc(C)n4c3=O)cc2)CC1 | < 5% | 5 to 20% | 33.3 µg/mL (≈ 85.1 µM)
9 | Cc1cccc2ncc(C(=O)Nc3ccc(N4CCCCC4)cc3)c(=O)n12 | < 5% | < 5% | 1.4 µg/mL (≈ 3.86 µM)
10 | Cc1cccc2ncc(C(=O)Nc3ccc4c(c3)CN(C)C4)c(=O)n12 | < 5% | < 5% | 35.4 µg/mL (≈ 106 µM)
11 | C#Cc1ccc(NC(=O)c2cnc3cccc(C)n3c2=O)cc1 | < 5% | 5 to 20% | 1.5 µg/mL (≈ 4.95 µM)
12 | CCCCc1ccc(NC(=O)c2cnc3cccc(C)n3c2=O)cc1 | 5 to 20% | > 20% | 0.05 µg/mL (≈ 0.149 µM)
13 | Cc1cccc2ncc(C(=O)Nc3ccc(C4CCCCC4)cc3)c(=O)n12 | < 5% | > 20% | 0.2 µg/mL (≈ 0.553 µM)
14 | CCCCC1CCC(NC(=O)c2cnc3cccc(C)n3c2=O)CC1 (stereo not drawn) | 5 to 20% | > 20% | 0.4 µg/mL (≈ 1.17 µM)

The remaining lines, values ahead:

Row | activation at 0.1 µM [1] | activation at 1 µM [1] | solubility [2] | Structure (SMILES)
15 | < 5% | > 20% | 1.1 µg/mL (≈ 3.51 µM) | CCc1ccc(NC(=O)c2cnc3scc(C)n3c2=O)cc1
16 | 5 to 20% | > 20% | 0.5 µg/mL (≈ 1.53 µM) | Cc1csc2ncc(C(=O)Nc3ccc(C(C)C)cc3)c(=O)n12
17 | < 5% | 5 to 20% | 17 µg/mL (≈ 54.2 µM) | CCc1ccc(CNC(=O)c2cnc3sccn3c2=O)cc1
18 | < 5% | 5 to 20% | 2.5 µg/mL (≈ 7.64 µM) | CCc1ccc(CCNC(=O)c2cnc3sccn3c2=O)cc1
19 | 5 to 20% | > 20% | 4.9 µg/mL (≈ 16 µM) | CCC1CCC(NC(=O)c2cnc3sccn3c2=O)CC1 (stereo not drawn)
20 | < 5% | < 5% | 22.6 µg/mL (≈ 65.8 µM) | O=C(NCC1COc2ccccc2O1)c1cnc2sccn2c1=O (stereo not drawn)
21 | < 5% | 5 to 20% | 2.7 µg/mL (≈ 8.59 µM) | CC(C)c1ccc(NC(=O)c2cnc3sccn3c2=O)nc1
22 | < 5% | < 5% | 13.8 µg/mL (≈ 43.9 µM) | CC(C)c1ccc(NC(=O)c2cnc3sccn3c2=O)cn1
23 | 5 to 20% | > 20% | 3.4 µg/mL (≈ 11.5 µM) | C#Cc1ccc(NC(=O)c2cnc3sccn3c2=O)cc1
24 | 5 to 20% | > 20% | 1.2 µg/mL (≈ 3.85 µM) | O=C(NC1Cc2ccccc2C1)c1cnc2sccn2c1=O
25 | < 5% | 5 to 20% | 1 µg/mL (≈ 3.41 µM) | CCc1ccc(NC(=O)c2cnc3ccccn3c2=O)cc1
26 | < 5% | 5 to 20% | 0.3 µg/mL (≈ 0.933 µM) | CCC(C)c1ccc(NC(=O)c2cnc3ccccn3c2=O)cc1 (stereo not drawn)
27 | < 5% | 5 to 20% | 0.5 µg/mL (≈ 1.49 µM) | CCC(C)c1ccc(NC(=O)c2cnc3c(C)cccn3c2=O)cc1 (stereo not drawn)
28 | 5 to 20% | > 20% | 13.9 µg/mL (≈ 41.7 µM) | Cc1cccc2ncc(C(=O)NC3CCCc4ccccc43)c(=O)n12 (stereo not drawn)
29 | < 5% | > 20% | 6.8 µg/mL (≈ 21.3 µM) | Cc1cccc2ncc(C(=O)NC3CCc4ccccc43)c(=O)n12 (stereo not drawn)
30 | < 5% | 5 to 20% | 0.7 µg/mL (≈ 2.08 µM) | Cc1cccc2ncc(C(=O)Nc3ccc4c(c3)OCCO4)c(=O)n12
31 | 5 to 20% | > 20% | 3.5 µg/mL (≈ 9.68 µM) | Cc1cccc2ncc(C(=O)NC3CCC(c4ccccc4)CC3)c(=O)n12 (stereo not drawn)
32 | < 5% | 5 to 20% | 4.3 µg/mL (≈ 12.9 µM) | Cc1cccc2ncc(C(=O)NC3CCc4ccccc4C3)c(=O)n12 (stereo not drawn)
